Results filed as inconclusive are left out. Active and inactive are the calls of the source.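 How the source made its calls: active means fitted curve reaches activity 50 in the expected rising direction at or below the top valid tested dose; inconclusive means no clear call, values can overlap the other calls; inactive means activity in the wrong direction, and the rest.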
Target: Virion infectivity factor (Human immunodeficiency virus type 1 group M subtype B (isolate BH10)) + Virion infectivity factor (Human immunodeficiency virus type 1 group M subtype B (isolate BRU/LAI)) + Virion infectivity factor (Human immunodeficiency virus type 1 group M subtype B (isolate PCV12)) + Virion infectivity factor (Human immunodeficiency virus type 1 group M subtype B (isolate HXB2)) (UniProt P69720+P69721+P69722+P69723)
Test: Vif multimerization inhibitor potency, dose response, imaging, HEK293T, cherry-picks (AID 652241);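 further: imaged cell signal that rises when Vif self-association is disrupted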
Conditions: 24 h

Virion infectivity factor (Human immunodeficiency virus type 1 group M subtype B (isolate BH10)) + Virion infectivity factor (Human immunodeficiency virus type 1 group M subtype B (isolate BRU/LAI)) + Virion infectivity factor (Human immunodeficiency virus type 1 group M subtype B (isolate PCV12)) + Virion infectivity factor (Human immunodeficiency virus type 1 group M subtype B (isolate HXB2)), sequence (P69720 whole entry, looked up): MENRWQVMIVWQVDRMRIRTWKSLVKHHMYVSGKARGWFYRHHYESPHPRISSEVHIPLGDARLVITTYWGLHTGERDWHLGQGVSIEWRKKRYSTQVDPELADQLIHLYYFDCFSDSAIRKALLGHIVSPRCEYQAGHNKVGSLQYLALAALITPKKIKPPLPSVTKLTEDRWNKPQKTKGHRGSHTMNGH
Virion infectivity factor (Human immunodeficiency virus type 1 group M subtype B (isolate BH10)) + Virion infectivity factor (Human immunodeficiency virus type 1 group M subtype B (isolate BRU/LAI)) + Virion infectivity factor (Human immunodeficiency virus type 1 group M subtype B (isolate PCV12)) + Virion infectivity factor (Human immunodeficiency virus type 1 group M subtype B (isolate HXB2)), sequence (P69721 whole entry, looked up): as the sequence (P69720 whole entry, looked up) above
Virion infectivity factor (Human immunodeficiency virus type 1 group M subtype B (isolate BH10)) + Virion infectivity factor (Human immunodeficiency virus type 1 group M subtype B (isolate BRU/LAI)) + Virion infectivity factor (Human immunodeficiency virus type 1 group M subtype B (isolate PCV12)) + Virion infectivity factor (Human immunodeficiency virus type 1 group M subtype B (isolate HXB2)), sequence (P69722 whole entry, looked up): as the sequence (P69720 whole entry, looked up) above
Virion infectivity factor (Human immunodeficiency virus type 1 group M subtype B (isolate BH10)) + Virion infectivity factor (Human immunodeficiency virus type 1 group M subtype B (isolate BRU/LAI)) + Virion infectivity factor (Human immunodeficiency virus type 1 group M subtype B (isolate PCV12)) + Virion infectivity factor (Human immunodeficiency virus type 1 group M subtype B (isolate HXB2)), sequence (P69723 whole entry, looked up): as the sequence (P69720 whole entry, looked up) above

SMILES	activity, higher = inhibition (at 19.5 µM (top of the series))	further results
Cc1nc(-c2ccccc2OC(F)(F)F)[nH]c(=O)c1Cl	inactive	–
COc1ccc(-c2nnc(SCC(=O)N3CCCc4ccccc43)o2)cc1OC	inactive	–
OCC1OC(n2cnc3c(NCc4ccco4)ncnc32)C(O)C1O (configuration not stated)	–	activity, higher = inhibition (at 2.1 µM (top of the series)): inactive
COc1ccc2cc(-c3cc(C(=O)OCC(=O)NC4CCS(=O)(=O)C4)c4ccccc4n3)ccc2c1 (configuration not stated)	–	AC50: 14.7 µM
Cc1nc(SCC(=O)N2CCCC2=O)nc(C)c1C	inactive	–
CCOC(=O)C1CCCN(CC(=O)Nc2c(C(=O)OC)[nH]c3ccc(Cl)cc23)C1 (configuration not stated)	inactive	–
NC(CCc1ccccc1)c1csc(Nc2ccc(C(=O)c3ccccc3)cc2)n1 (configuration not stated)	–	AC50: 10.2 µM
Cc1ccc(Nc2cc(=O)[nH]c(=O)[nH]2)cc1C	inactive	–
Oc1[nH]c(=S)sc1/C=C1\C(c2ccccc2)=Nc2ccccc21	–	activity, higher = inhibition (at 6.8 µM (top of the series)): inactive
Cn1nnnc1Sc1ncnc2scc(-c3ccc(Cl)cc3)c12	–	AC50: 3.75 µM
CCC(C)C(=O)Nn1c(C2CC2)nc2cc(OC)c(OC)cc2c1=O (configuration not stated)	inactive	–
COc1ccc(OC)c(NC(=O)c2cc3ccccc3cc2OC)c1	–	activity, higher = inhibition (at 6.8 µM (top of the series)): inactive
Cc1cccc(C)c1NC(=O)COc1ccc2c(C)c(Cc3ccccc3)c(=O)oc2c1C	inactive	–
CCCOc1ccc(C(O)(CCC)CCN2CCCCC2)cc1 (configuration not stated)	inactive	–
COc1cc(OC)cc(C(=O)N[C@H](C(=O)Nc2ccc3c(c2)OCO3)C(C)C)c1	inactive	–
CC(C)CN1C(=O)C(=O)N(CC(=O)c2ccc3c(c2)OCO3)C1=O	inactive	–
Cc1cc(Cl)n2c(nc3cc(F)c(F)cc32)c1C#N	–	AC50: 5.68 µM
CCCc1cc(=O)oc2cc(OCc3cc(OC)c(OC)c(OC)c3)c(Cl)cc12	–	AC50: 19.1 µM
COc1c(Br)cc(Br)cc1/C=C1/C(=O)N=C(N)N1C	inactive	–
Cc1ccc(C(c2cc(Cl)c3cccnc3c2O)N2CCN(C)CC2)cc1 (configuration not stated)	–	AC50: 5.7 µM
O=c1sc(N2CCN(c3ccc(F)cc3)CC2)nc2ccsc12	inactive	–

SMILES	activity, higher = inhibition (at 19.5 µM (top of the series))	further results
COc1ccc(CC(=O)OCC(=O)Nc2cccc(Br)c2)cc1	inactive	–
Cc1c(NC(=O)CC(O)(C(F)(F)F)C(F)(F)F)c(=O)n(-c2ccccc2)n1C	inactive	–
C/C=C/c1ccc(OCCNCc2ccccc2)c(OC)c1	inactive	–
CCC(C)NC(=O)Cn1c(=O)n(-c2ccccc2)c(=O)c2ccc(C(=O)NCc3ccco3)cc21 (configuration not stated)	inactive	–
COc1ccc(C(=O)NCc2oc(-c3ccccc3)cc2C(=O)O)cc1	inactive	–
S=C(NC1CC1)N1CCc2ccccc2C1	inactive	–
CCOC(=O)C1CCN(S(=O)(=O)c2cccc(-c3cn4cc(C)ccc4n3)c2)CC1	inactive	–
Cc1ccc2c(c1)N(CC(=O)N1CCCCCC1)C(=O)C(C)O2 (configuration not stated)	inactive	–
COc1ccc(C(=O)c2sc3nc(C)cc(-c4cccs4)c3c2N)cc1OC	–	activity, higher = inhibition (at 6.8 µM (top of the series)): inactive
O=C(c1ccc(Cl)c(Cl)c1)N(Cc1ccco1)c1ccc(O)cc1	inactive	–
Cc1ccc(CCC(=O)Nc2ncc(Cc3cc(Cl)ccc3Cl)s2)o1	–	AC50: 2.02 µM
O=C(Nc1ccc2c(c1)nc1n2CCOC1)c1ccccc1	inactive	–
O=C(NCc1ccccc1C(F)(F)F)c1cccc2c1C(=O)c1ccc(N3CCCCC3)cc1S2(=O)=O	–	AC50: 14.1 µM
CC(C)C(=O)N=C1SC2CS(=O)(=O)CC2N1Cc1ccccc1 (configuration not stated)	inactive	–
O=C(CN(C(=O)c1csnn1)c1ccc(F)cc1)NCc1ccc2c(c1)OCO2	inactive	–
C=CCNc1sc(C(=O)c2ccc(Br)s2)c(N)c1C#N	inactive	–
CC1Cc2ccccc2N1C(=O)COC(=O)c1ccccc1NCCO (configuration not stated)	inactive	–
CC1CN(S(=O)(=O)c2cccc(C(=O)N3CCC(C(N)=O)CC3)c2)CC(C)O1 (configuration not stated)	inactive	–
O=S(=O)(Nc1nc2ccccc2nc1NCc1ccco1)c1ccc(Cl)cc1	inactive	–
CCN(CC(=O)Nc1c(F)cccc1F)C(=O)c1cccc(-n2cccc2)c1	inactive	–
Cc1nnc2ccc(-c3ccc(NS(=O)(=O)c4ccc(F)cc4F)cc3)nn12	–	AC50: > 19.5 µM (inactive)
